Experiments:
[1] = biological target: T1, androgen receptor (Rattus norvegicus, UniProt P15207); test: COS-7 Whole-Cell Androgen Receptor Binding Assay, Adenovirus Transduction; settings: COS Binding; for % Inhibition: concentration of 3000 nM unless otherwise noted
T1 sequence (P15207 1-902): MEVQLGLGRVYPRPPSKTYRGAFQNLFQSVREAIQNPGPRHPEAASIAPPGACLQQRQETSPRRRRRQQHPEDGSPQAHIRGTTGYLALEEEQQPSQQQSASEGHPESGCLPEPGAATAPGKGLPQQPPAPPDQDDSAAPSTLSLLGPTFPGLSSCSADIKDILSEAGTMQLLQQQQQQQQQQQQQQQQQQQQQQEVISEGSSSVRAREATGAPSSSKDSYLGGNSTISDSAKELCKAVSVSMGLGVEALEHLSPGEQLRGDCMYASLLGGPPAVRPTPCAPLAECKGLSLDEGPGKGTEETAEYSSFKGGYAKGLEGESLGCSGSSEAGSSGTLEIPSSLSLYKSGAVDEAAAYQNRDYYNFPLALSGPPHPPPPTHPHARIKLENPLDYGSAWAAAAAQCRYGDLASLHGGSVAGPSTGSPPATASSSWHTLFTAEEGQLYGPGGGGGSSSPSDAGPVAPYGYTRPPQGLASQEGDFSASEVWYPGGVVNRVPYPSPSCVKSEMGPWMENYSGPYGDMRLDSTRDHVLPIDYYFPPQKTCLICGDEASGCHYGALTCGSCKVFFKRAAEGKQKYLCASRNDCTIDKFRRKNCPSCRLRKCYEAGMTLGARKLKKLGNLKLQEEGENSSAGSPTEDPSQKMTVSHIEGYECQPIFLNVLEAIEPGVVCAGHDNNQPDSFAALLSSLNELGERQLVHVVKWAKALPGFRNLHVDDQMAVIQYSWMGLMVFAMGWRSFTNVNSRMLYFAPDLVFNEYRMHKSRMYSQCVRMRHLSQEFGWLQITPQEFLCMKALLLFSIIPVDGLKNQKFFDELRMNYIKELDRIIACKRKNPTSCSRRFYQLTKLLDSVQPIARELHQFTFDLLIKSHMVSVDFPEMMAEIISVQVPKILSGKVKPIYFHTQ
Procedure: COS-7 cells were plated in 96-well plates at 20,000 cells per well, in a solution of DMEM/F12 (GIBCO) containing 10% (v/v) charcoal-treated fetal bovine serum (Hyclone) and lacking phenol red. The cells were then incubated overnight at 37° C. in 5% (v/v) humidified CO2.
Test compound solutions were prepared by diluting the test compound in 100% (v/v) DMSO, if necessary.
Next, 1 mL of DMEM/F12 lacking phenol red was pipetted into each of the wells of a 2-mL 96-well assay block. […] The wells were carefully mixed by pipette.
In a 15 mL or 50 mL sterile centrifuge tube, a dilution in DMEM/F12 of the adenovirus AdEasy+rAR at a moi of 1:50 per well was prepared.
The medium was removed from the 96-well plates by inversion and the plates dried very briefly, inverted, on a sterile towel. As soon as possible after medium removal, 40 μL of the diluted test compound was added to each well, in duplicate. […] The plates were then incubated for 48 hours at 37° C. in 5% (v/v) humidified CO2.
The medium was removed from the above incubated plates by inversion and dried. Each well was then washed with 0.35 mL of 1×PBS. The PBS was then removed from the plates by inversion and the plates dried.
To each well was then added 50 μL of 0.5% (v/v) Triton X-100 (Sigma) in 1×PBS and the plates placed on a rotary shaker for 5 min. The contents of each well were then transferred to an OptiPlate-96 (Packard) scintillation plate. To each well was then added 0.2 mL of Microscint-20 (Packard) and the wells counted on a TopCount (Packard).
Percent inhibition was determined by testing dilutions of the test compound (usually duplicates of 10 μM) in the binding assay. Counts per well were measured and percents of inhibition determined. […] Counts per well were measured and IC50s determined by linear regression.

[2] = biological target: T1, androgen receptor; test: L929 Androgen Receptor Functional Assay, Adenovirus Transduction; assay type: cell-based; parameters: expressed in transfected cells; host or cells: L929 cells transduced with adenovirus AdEasy+rAR; settings: concentration of 3000 nM; for % Activity: L929 agonist testing; for % Inhibition: L929 antagonist testing with R1881
Procedure: L929 cells were plated in 96-well plates at 20,000 cells per well, in DMEM/F12 (GIBCO) containing 10% (v/v) charcoal-treated fetal bovine serum (Hyclone) and lacking phenol red. The plates were then incubated overnight at 37° C. in 5% (v/v) humidified CO2.
Test compound dilutions were prepared in 100% (v/v) DMSO, if necessary. Each dilution was made to 1250× the final desired assay concentration.
First, 2 mL of DMEM/F12 lacking phenol red was pipetted into the wells of a 2-mL 96-well assay block. Next, 4 μL of the 1250× test compound dilutions were pipetted into each well of the assay block. The mixtures within the well were then carefully mixed by pipette.
In a 15 mL or 50 mL sterile centrifuge tube, a 2.5 nM (2.5×) dilution of R1881 (methyl-trienolone) in DMEM/F12 lacking phenol red was prepared.
In a second 15 mL or 50 mL centrifuge tube a solution containing an equal volume of DMEM to the first and an equal volume of 100% (v/v) DMSO to the volume of R1881 used in the first tube was prepared.
In a 15 mL or 50 mL sterile centrifuge tube, a dilution in DMEM/F12 of the adenovirus AdEasy+rAR at an moi of 1:500 per well was prepared.
The medium was removed from the 96-well plates by inversion and dried, inverted, very briefly. As soon as possible after medium removal, 40 μL of the diluted unlabeled test compound was added to each well, in duplicate. To each well designated for antagonist testing was added 40 μL of the 2.5 nM R1881 dilution to the wells for antagonist testing. To each well designated for agonist testing was added 40 μL of the DMSO dilution. Then 20 μL of the diluted adenovirus were added to all wells. The plates were incubated for 48 hours at 37° C. in 5% (v/v) humidified CO2.
To each well was added 100 μL of Steady-Glo luciferase assay substrate (Promega) and the plates were placed on a rotary shaker for 1 min. The plates were then incubated at room temperature in the dark for one hour. The contents of each well were then transferred to a white microtiter plate (Packard) and read on a Luminoskan Ascent (Thermo Lab Systems).
L929 AR percent activity was determined by testing dilutions of the test compound using a concentration of 3000 nM unless otherwise noted. L929 percent inhibition was determined by testing dilutions of the test compound using a concentration of 3000 nM. […] Luciferase activity per well were measured and EC50s and IC50s determined by linear regression.

[3] = biological target: T1, androgen receptor; test: Androgen Receptor Binding Using Rat Ventral Prostate Cytosol; parameters: from tissue; host or cells: ventral prostate cytosol of castrated male Sprague Dawley or Wistar rats; settings: Rat Cytosol; Concentration 3000 nM
Procedure: Rat Prostate Cytosol Preparation:
Male Sprague Dawley or Wistar rats (Charles River, 200-300 g) were used for each preparation. The day before preparing the cytosol, the rats were castrated using standard surgical procedures.
The rats were euthanized by carbon dioxide asphyxiation. The rat prostates were quickly removed and placed on ice in pre-chilled, pre-weighed 50 mL plastic tubes. No more than five prostates were placed into one tube. The tubes were then weighed and the prostate tissue wet weights calculated.
To the chilled prostate tissue was then added […] of chilled homogenization buffer. The homogenization buffer was freshly prepared by mixing 10 mM Tris.HCl, pH 7.4, 1 mM sodium molybdate, 1.5 mM EDTA, 1 mM dithiothreitol, 10% (v/v) glycerol and 1% protease inhibitor cocktail (Sigma P 8340).
The prostate tissue was homogenized in a cold room using a pre-chilled Polytron PT3000 homogenizer (Brinkmann). Homogenization was performed at a speed setting of 20, three times for 10 sec bursts. The tubes containing the prostate tissue was kept on ice while homogenizing. The homogenate was allowed to rest on ice for 20 sec between bursts.
The homogenate was then placed into pre-chilled 3 mL polycarbonate ultracentrifuge tubes and centrifuged in the TLA-100 rotor of a TL-100 ultracentrifuge for 12 min at 100,000 rpm at 4° C. The resulting supernatant was stored in 1 mL aliquots at −80° C. until needed.
Binding to the androgen receptor was determined according to the protocol described in Example 86 using the above prepared rat cytosol.
% Inhibition was determined by testing dilutions of the test compound (usually duplicates of 10 μM) in the binding assay. Counts per well were measured and percents of inhibition determined. […] Counts per well were measured and IC50s determined by linear regression.

[4] = system: castrated male Sprague Dawley rats; test: Ventral Prostate and Seminal Vesicle Weight In Vivo Assay; parameters: species or system rat; key: active: non weight adjusted prostate weight was ≦40 mg or the % Inhibition prostate weight, body weight adjusted was ≧40% @ 2 mg/day dosage; inactive: they did not meet the specified criteria defined above; settings: immature castrated male rats, once daily for five days, with testosterone propionate 2 mg/kg subcutaneously
Procedure: Immature (approximately 50 g) castrated male Sprague Dawley rats (Charles River) were treated once daily for five days with test compound (usually given orally at 40 mg/kg in a volume of 0.3 mL, in 30% cyclodextrin or 0.5% methylcellulose vehicle) and with testosterone propionate (given subcutaneously by injection at the nape of the neck at 2 mg/kg, in a volume of 0.1 mL in sesame oil). On the sixth day, the rats were euthanized by asphyxiation in carbon dioxide. Ventral prostates and seminal vesicles were removed and their wet weights determined.
A test compound was said to be “active” if the non weight adjusted prostate weight was ≦40 mg or the % Inhibition prostate weight, body weight adjusted was ≧40% @ 2 mg/day dosage.

| Compound | % Inhibition [1] | % Activity [2] | active / inactive: inhibition of testosterone-enhanced prostate weight [4] | further results |
| --- | --- | --- | --- | --- |
| C[S+]([O-])CCC(C)(O)c1cc2cc([N+](=O)[O-])c(C(F)(F)F)cc2[nH]1 (mixture of isomers) [compound 50] | 7% | 2% | – | – |
| CC(O)(C[S+]([O-])Cc1ccccc1)c1cc2cc([N+](=O)[O-])c(C(F)(F)F)cc2[nH]1 (mixture of isomers) [compound 161] | 20% | 2% | – | % Inhibition [3]: 39% |
| CC(O)(CSc1ccc(N)cc1)c1cc2cc(Cl)c(C(F)(F)F)cc2n1S(C)(=O)=O (racemic) [compound 125] | 30% | −5% | – | – |
| COc1ccc(S(=O)(=O)CC(C)(O)c2cc3cc(Cl)c(C(F)(F)F)cc3[nH]2)cc1 (racemic) [compound 129] | 10% | −5% | – | % Inhibition [2]: −8%; % Inhibition [3]: 39.5% |
| COc1ccc(SCC(C)(O)c2cc3cc(Cl)c(C(F)(F)F)cc3n2S(C)(=O)=O)cc1 (racemic) [compound 130] | −8% | −5% | – | % Inhibition [3]: 32.55% |
| CCSCC(C)(O)c1cc2cc(Cl)ccc2n1S(C)(=O)=O (racemic) [compound 154] | 50% | 2% | – | % Inhibition [2]: 7% |
| CCSCC(C)(O)c1cc2cc(F)c(Cl)cc2[nH]1 (racemic) [compound 206] | −40% | 5% | active | – |
| CCSCC(C)(O)c1[nH]c2cc(C(F)(F)F)c([N+](=O)[O-])cc2c1C (racemic) [compound 221] | – | −1% | inactive | – |
| CC(O)(CSCC(F)(F)F)c1cc2cc([N+](=O)[O-])c(C(F)(F)F)cc2[nH]1 (single isomer, unassigned) [compound 202] | 50% | 1% | – | – |
| N#Cc1cc2cc(C3(O)CCSC3)[nH]c2cc1C(F)(F)F (stereo not drawn) [Compound #15] | – | – | inactive | – |
| OC1(c2cc3cc(Cl)c(C(F)(F)F)cc3[nH]2)CCSC1 (stereo not drawn) [compound 14] | – | – | inactive | – |
| O=[N+]([O-])c1cc2cc(C3(O)CCSC3)[nH]c2cc1C(F)(F)F (stereo not drawn) [compound 18] | – | – | inactive | – |
| CSCC(C)(O)c1cc2cc([N+](=O)[O-])c(C(F)(F)F)cc2[nH]1 (stereo not drawn) [compound 139] | – | – | active | – |
| CCSCC(C)(O)c1[nH]c2cc(C(F)(F)F)c(Br)cc2c1C (stereo not drawn) [compound 220] | – | – | – | IC50 [1]: 34 nM |
| CCSCC(C)(O)c1cc2cc(C#N)c(Cl)cc2[nH]1 (stereo not drawn) [compound 225] | – | – | active | – |

From patent US9434688B2, “Indole derivatives as selective androgen receptor modulators (SARMS)” (Janssen Pharmaceutica, NV, priority 2004, dated 2016)
